Earlier results on 36 compounds are cited in patent publication US20130338095A1, “Chemosensory Receptor Ligand-Based Therapies” (ELCELYX THERAPEUTICS, INC., priority 2010, published 2013).

This data set deals with T1, sweet receptor (Homo sapiens, UniProt Q7RTX0+Q8TE23).
T1 sequence (Q8TE23 20-839): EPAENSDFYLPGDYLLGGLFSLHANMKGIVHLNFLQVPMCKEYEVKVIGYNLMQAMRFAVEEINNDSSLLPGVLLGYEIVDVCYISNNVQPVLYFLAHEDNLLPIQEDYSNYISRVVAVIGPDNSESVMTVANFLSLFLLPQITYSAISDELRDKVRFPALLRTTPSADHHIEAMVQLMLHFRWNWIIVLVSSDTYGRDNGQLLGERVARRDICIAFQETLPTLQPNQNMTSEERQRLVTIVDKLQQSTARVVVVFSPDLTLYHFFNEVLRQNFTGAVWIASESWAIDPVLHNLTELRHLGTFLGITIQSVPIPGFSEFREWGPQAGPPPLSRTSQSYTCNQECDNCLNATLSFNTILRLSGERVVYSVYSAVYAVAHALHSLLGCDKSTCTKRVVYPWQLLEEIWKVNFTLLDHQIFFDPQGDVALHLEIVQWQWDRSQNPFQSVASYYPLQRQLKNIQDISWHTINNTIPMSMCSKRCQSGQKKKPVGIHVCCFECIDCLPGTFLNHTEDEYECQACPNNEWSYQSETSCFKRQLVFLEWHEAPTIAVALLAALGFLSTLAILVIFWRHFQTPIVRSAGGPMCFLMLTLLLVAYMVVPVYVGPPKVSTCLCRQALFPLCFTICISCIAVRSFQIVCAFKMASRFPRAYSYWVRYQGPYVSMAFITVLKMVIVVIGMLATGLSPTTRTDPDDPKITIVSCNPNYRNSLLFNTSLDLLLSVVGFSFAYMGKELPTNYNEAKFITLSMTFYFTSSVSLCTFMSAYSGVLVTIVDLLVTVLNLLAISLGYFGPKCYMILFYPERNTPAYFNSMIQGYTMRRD
T1 sequence (Q7RTX0 21-852): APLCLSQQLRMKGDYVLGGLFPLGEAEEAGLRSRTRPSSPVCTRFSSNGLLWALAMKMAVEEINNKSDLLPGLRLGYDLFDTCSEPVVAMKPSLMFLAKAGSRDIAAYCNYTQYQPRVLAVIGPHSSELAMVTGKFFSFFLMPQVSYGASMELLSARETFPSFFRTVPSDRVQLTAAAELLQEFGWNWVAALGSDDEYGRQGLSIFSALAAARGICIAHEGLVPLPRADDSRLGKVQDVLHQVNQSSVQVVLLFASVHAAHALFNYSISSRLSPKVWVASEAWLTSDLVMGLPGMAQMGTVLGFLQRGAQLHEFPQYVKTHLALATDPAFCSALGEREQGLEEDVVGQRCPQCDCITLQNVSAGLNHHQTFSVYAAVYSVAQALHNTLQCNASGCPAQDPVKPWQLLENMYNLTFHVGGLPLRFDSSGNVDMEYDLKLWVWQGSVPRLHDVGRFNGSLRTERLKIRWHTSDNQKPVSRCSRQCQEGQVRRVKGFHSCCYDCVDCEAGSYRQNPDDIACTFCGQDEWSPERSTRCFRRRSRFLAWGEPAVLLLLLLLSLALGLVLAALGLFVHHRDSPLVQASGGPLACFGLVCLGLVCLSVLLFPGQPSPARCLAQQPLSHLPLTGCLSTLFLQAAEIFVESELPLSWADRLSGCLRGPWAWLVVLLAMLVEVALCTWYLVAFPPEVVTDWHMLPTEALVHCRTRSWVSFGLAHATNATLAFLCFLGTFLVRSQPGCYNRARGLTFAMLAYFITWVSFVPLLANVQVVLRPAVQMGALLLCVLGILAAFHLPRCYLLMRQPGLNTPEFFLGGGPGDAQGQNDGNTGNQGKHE
The following applies: relative sweetness on a weight comparison basis to sucrose (=1.0).

On to Pterocaryoside A, for which the Sweetness/potency was 50.
Regarding `CC1(C(=O)O)C=C2C3CCC4C5(C=O)CCC(OC6OC(C(=O)O)C(O)C(O)C6OC6OCC(O)C(O)C6O)C(C)(C)C5CCC4(C)C3(C)CCC2(C)CC1` (stereo not drawn) [Periandrin V], the Sweetness/potency is 220.
Turning to `C[C@@H]1O[C@@H](O[C@H]2[C@H](Oc3cc(O)c(C(=O)CCc4ccc(O)cc4)c(O)c3)O[C@H](CO)[C@@H](O)[C@@H]2O)[C@H](O)[C@H](O)[C@H]1O` [Naringin dihydrochalcone], the Sweetness/potency is given as 300.
Turning to `C=C1C[C@@]23CC[C@H]4[C@@](C)(CCC[C@@]4(C)C(=O)O)[C@@H]2CC[C@]1(O[C@@H]1O[C@H](CO)[C@@H](O)[C@H](O)[C@H]1O[C@@H]1O[C@H](CO)[C@@H](O)[C@H](O)[C@H]1O)C3` [Steviolbioside], the Sweetness/potency is on record as 90.
Carnosifloside V: the Sweetness/potency is recorded as 51.
Consider Cyclocarioside A, for which the Sweetness/potency is given as 200.
With `O=C/C=C/c1ccccc1` [Trans-Cinnamaldehyde], the Sweetness/potency is recorded as 50.
For the compound `CC[C@@H](C)C(=O)O[C@@H](C)[C@]1(O)CC[C@]2(O)[C@@H]3CC[C@H]4C[C@@H](O[C@@H]5C[C@H](O)[C@H](O[C@H]6C[C@H](OC)[C@H](O[C@H]7C[C@@H](OC)[C@H](O[C@H]8C[C@@H](OC)[C@H](O[C@@H]9O[C@H](C)[C@@H](O[C@@H]%10O[C@H](CO)[C@@H](O)[C@H](O)[C@H]%10O)[C@H](OC)[C@H]9O)[C@@H](C)O8)[C@@H](C)O7)[C@@H](C)O6)[C@@H](C)O5)CC[C@]4(C)[C@H]3C[C@@H](OC(C)=O)[C@]12C` [Telosmoside A15], the Sweetness/potency was 1000.
For Pentadin, the Sweetness/potency is 500.
On to `CC(C)=CCC[C@](C)(O)[C@@H]1CCC(C)=CC1=O` [(+)-Hernandulcin], for which the Sweetness/potency is given as 1,500.
As for `COc1c(O)cc2c(c1O)C(=O)[C@H](OC(C)=O)[C@@H](c1ccc(O)cc1)O2` [(2R,3R)-2,3-Dihydro-5,7,4′-trihydroxy-6-methoxy-3-O-acetylflavonol], the Sweetness/potency is listed as 20.
Consider Baiyunoside, for which the Sweetness/potency is on record as 500.
Turning to `CC1(C)C[C@H]2C3=CC[C@@H]4[C@@]5(C)CC[C@H](O[C@@H]6O[C@H](CO[C@@H]7OC[C@H](O)[C@H](O)[C@H]7O[C@@H]7OC[C@@H](O)[C@H](O)[C@H]7O)[C@@H](O)[C@H](O)[C@H]6O)C(C)(C)[C@@H]5CC[C@@]4(C)[C@]3(C)C[C@@H](O)[C@@]23C[C@@H]1OC3=O` [Albiziasaponin A], the Sweetness/potency is listed as 5.
As for `COc1c(O)cc2c(c1O)C(=O)[C@H](OC(C)=O)[C@@H](c1ccc(O)c(O)c1)O2` [(2R,3R)-2,3-Dihydro-5,7,3′,4′-tetrahydroxy-6-methoxy-3-O-acetylflavonol], the Sweetness/potency was 25.
As to `C/C(=C\CC[C@@H](C)[C@H]1CC[C@@]2(C)[C@@H]3CC=C4[C@@H](CC[C@H](O[C@@H]5O[C@H](CO)[C@@H](O)[C@H](O)[C@H]5O)C4(C)C)[C@]3(C)[C@H](O)C[C@]12C)CO[C@@H]1O[C@H](CO[C@@H]2O[C@H](CO)[C@@H](O)[C@H](O)[C@H]2O)[C@@H](O)[C@H](O)[C@H]1O` [Carnosifloside VI], the Sweetness/potency is reported as 77.
For the compound `C=C1C[C@@]23CC[C@H]4[C@@](C)(CCC[C@@]4(C)C(=O)O[C@@H]4O[C@H](CO)[C@@H](O)[C@H](O)[C@H]4O)[C@@H]2CC[C@]1(O[C@@H]1O[C@H](CO)[C@@H](O)[C@H](O)[C@H]1O[C@@H]1O[C@H](CO)[C@@H](O)[C@H](O)[C@H]1O)C3` [Stevioside], the Sweetness/potency is 210.
As to Periandrin II, the Sweetness/potency is recorded as 95.
Consider `CC1=CC[C@@H]([C@@H](C)[C@H]2CC[C@@]3(C)[C@@H]4CC[C@H]5[C@](C)(C(=O)O)[C@@H](O[C@@H]6O[C@H](CO)[C@@H](O)[C@H](O)[C@H]6O[C@@H]6O[C@H](CO)[C@@H](O)[C@H](O)[C@H]6O)CC[C@@]56C[C@@]46CC[C@]23C)OC1=O` [Abrusoside C], for which the Sweetness/potency is reported as 50.
In the case of Albiziasaponin B, the Sweetness/potency is 600.
For the compound `C/C=C/c1ccc(OC)cc1` [trans-Anethole], the Sweetness/potency was 13.
On to `C/C(=C\CC/C(C)=C/CO[C@@H]1O[C@H](CO)[C@@H](O)[C@H](O[C@@H]2O[C@@H](C)[C@H](O)[C@@H](O)[C@H]2O)[C@H]1O[C@@H]1O[C@@H](C)[C@H](O)[C@@H](O)[C@H]1O)CC/C=C(\C)CO[C@@H]1O[C@H](CO)[C@@H](O)[C@H](O[C@@H]2O[C@@H](C)[C@H](O)[C@@H](O)[C@H]2O)[C@H]1O[C@@H]1O[C@@H](C)[C@H](O)[C@@H](O)[C@H]1O` [Mukurozioside IIb], for which the Sweetness/potency result is recorded as “ca. 1”.
For the compound `C[C@@H]1O[C@@H](O[C@H]2O[C@@H]([C@@H](C)C3CC[C@@H]4[C@H]5CC(=O)[C@@H]6C[C@H](O[C@@H]7O[C@H](CO)[C@@H](O)[C@H](O)[C@H]7O[C@@H]7O[C@@H](C)[C@H](O)[C@@H](O)[C@H]7O)CC[C@]6(C)[C@@H]5CC[C@]34C)CC[C@@H]2C)[C@H](O)[C@H](O)[C@H]1O` (stereo partly drawn) [Osladin], the Sweetness/potency is reported as 500.
For the compound Rebaudioside C, the Sweetness/potency was 30.
For Curculin, the Sweetness/potency is on record as 550.
As to Monellin, the Sweetness/potency is listed as 3,000.
Regarding `C/C(=C\CO)CCC1=C(C=O)CC(OC2OCC(O)C(O)C2O)C2C(C)(CO)CCCC12C` (stereo not drawn) [Gaudichaudioside A], the Sweetness/potency is 55.
For the compound `CC1(C(=O)O)CCC2(C)CCC3(C)C(=CC(=O)C4C5(C)CCC(OC6OC(C(=O)O)C(O)C(O)C6OC6OCC(O)(CO)C6O)C(C)(C)C5CCC43C)C2C1` (stereo not drawn) [Apioglycyrrhizin], the Sweetness/potency was 300.
`COc1c(O)cc2c(c1O)C(=O)[C@H](O)[C@@H](c1ccc(O)c(O)c1)O2` [(2R,3R)-2,3-Dihydro-5,7,3′,4′-tetrahydroxy-6-methoxyflavonol]: the Sweetness/potency was 15.
Take `CC1=CC[C@@H]([C@@H](C)[C@H]2CC[C@@]3(C)[C@@H]4CC[C@H]5[C@](C)(C(=O)O)[C@@H](O[C@@H]6O[C@H](CO)[C@@H](O)[C@H](O)[C@H]6O[C@@H]6O[C@H](C(=O)O)[C@@H](O)[C@H](O)[C@H]6O)CC[C@@]56C[C@@]46CC[C@]23C)OC1=O` [Abrusoside D]: the Sweetness/potency is 75.
`COc1ccc(C2Oc3cc(O)cc(O)c3C(=O)C2OC(C)=O)cc1O` (stereo not drawn) [Dihydroquercetin 3-O-acetate 4′-methyl ether]: the Sweetness/potency is listed as 400.
`CC(=O)O[C@H]1C(=O)c2c(O)cc(O)cc2O[C@@H]1c1ccc(O)c(O)c1` [(2R,3R)-Dihydroquercetin 3-O-acetate]: the Sweetness/potency is 80.
Cyclocaryoside I: the Sweetness/potency is 250.
Consider `COc1ccc(CCC(=O)c2c(O)cc(O[C@@H]3O[C@H](CO)[C@@H](O)[C@H](O)[C@H]3O[C@@H]3O[C@@H](C)[C@H](O)[C@@H](O)[C@H]3O)cc2O)cc1O` [Neohesperidin dihydrochalcone], for which the Sweetness/potency is 1,000.
`COC(=O)[C@H]1O[C@@H](O[C@H]2[C@H](O[C@H]3CC[C@]45C[C@]46CC[C@]4(C)[C@@H]([C@H](C)[C@@H]7CC=C(C)C(=O)O7)CC[C@@]4(C)[C@@H]6CC[C@H]5[C@]3(C)C(=O)O)O[C@H](CO)[C@@H](O)[C@@H]2O)[C@H](O)[C@@H](O)[C@@H]1O` [Abrusoside B]: the Sweetness/potency is 100.
On to `C=C1C[C@@]23CC[C@H]4[C@@](C)(CCC[C@@]4(C)C(=O)O[C@@H]4O[C@H](CO)[C@@H](O)[C@H](O)[C@H]4O)[C@@H]2CC[C@]1(O[C@@H]1O[C@H](CO)[C@@H](O)[C@H](O)[C@H]1O[C@@H]1O[C@@H](C)[C@H](O)[C@@H](O)[C@H]1O)C3` [Dulcoside A], for which the Sweetness/potency is recorded as 30.
Rebaudioside B: the Sweetness/potency was 150.
